Here are results for twelve compounds from ChEMBL document CHEMBL5241104, “Reactive metabolites of the anticonvulsant drugs and approaches to minimize the adverse drug reaction” (Eur J Med Chem, 2021).

pIC50: −log10 of the molar value. Where only a bound is given, the exact number is not on record here.

Broadly, the pIC50 is the negative decadic logarithm of the IC50, by convention in mol/L. High values mean a small IC50, low ones a large IC50. For orientation: ED50 means the midpoint of the dose-response relation. As a reminder, the inhibition in vivo is the change of the read-out against control, counted positive when it falls. The TD50 is the dose at which the toxic effect under study appears in half of the subjects.

A short description of data set [1]: Displacement of 3[H]BTX from rat brain membrane voltage-sensitive sodium channel incubated for 1.5 hrs by scintillation counting analysis. The data set is classed as cell membranes.
A short description of data set [2]: Protective index, ratio of TD50 for toxicity in Wistar rat assessed as median toxicity dose at po administration for 2 hrs by rotorod test to ED50 for anticonvulsant activity in Wistar rat assessed as protection against maximal electroshock induced seizure at po administration for 2 hrs. The note with it: in vivo, read-out: Ratio TD50/ED50. The data set is classed as organism-based. In general terms: Falling from the rotarod earlier than controls is read as motor impairment.

Data set [3] in a line: Protective index, ratio of TD50 for toxicity in Wistar rat assessed as median toxicity dose at po administration for 4 hrs by rotorod test to ED50 for anticonvulsant activity in Wistar rat assessed as protection against maximal electroshock induced seizure at po administration for 4 hrs. The note with it: in vivo, read-out: Ratio TD50/ED50. The data set is classed as organism-based.

Data set [4] is described as follows: Protective index, ratio of TD50 for toxicity in Wistar rat assessed as median toxicity dose at po administration for 8 hrs by rotorod test to ED50 for anticonvulsant activity in Wistar rat assessed as protection against maximal electroshock induced seizure at po administration for 8 hrs. The data set is classed as organism-based. The following applies: in vivo, read-out: Ratio TD50/ED50.

Data set [5] concerns Rattus norvegicus. Description: Anticonvulsant activity in Wistar rat assessed as protection against maximal electroshock induced seizure at po administration for 2 hrs. The data set is classed as functional.
The test system of data set [6] is Rattus norvegicus. Description: Anticonvulsant activity in Wistar rat assessed as protection against maximal electroshock induced seizure at po administration for 8 hrs. The data set is classed as functional. (In the maximal electroshock model the usual endpoint is tonic extension of the hind limbs.)
For data set [7], the system named is Rattus norvegicus. Description: Anticonvulsant activity in Wistar rat assessed as protection against maximal electroshock induced seizure at po administration for 4 hrs. The data set is classed as functional.
In data set [8] the test system is Mus musculus. Kind of data set: Anticonvulsant activity in mouse assessed as protection against Sc-metrazol induced seizure at po administration. The data set is classed as functional.
For data set [9], the system named is Rattus norvegicus. Description: Anticonvulsant activity in rat assessed as protection against Sc-metrazol induced seizure at po administration. The data set is classed as functional.
Data set [10] can be described thus: Protective index, ratio of TD50 for toxicity in Sprague-Dawley rat assessed as median toxicity dose at ip administration by rotorod test to ED50 for anticonvulsant activity in Sprague-Dawley rat assessed as protection against maximal electroshock induced seizure at ip administration. The data set is classed as organism-based. The note with it: in vivo, read-out: Ratio TD50/ED50.

Data set [11] relates to Rattus norvegicus. Description: Anticonvulsant activity in Sprague-Dawley rat assessed as protection against maximal electroshock induced seizure at ip administration for 0.25 hrs. The data set is classed as functional.
The test system of data set [12] is Mus musculus. Description: Anticonvulsant activity in mouse assessed as protection against maximal electroshock induced seizure at ip administration for 120 mins. The following applies: 2 h. The data set is classed as functional.
In data set [13] the test system is Mus musculus. Description: Anticonvulsant activity in mouse assessed as inhibition of maximal electroshock induced seizure at 200 mg/kg,po administration for 120 mins. The data set is classed as functional. The following applies: 2 h.
Data set [14] has as its system Mus musculus. Description: Anticonvulsant activity in Albino Swiss CD-1 mouse assessed as protection against Sc-Met induced seizure at 100 mg/kg,ip administration. The data set is classed as functional.
The subject of data set [15] is Mus musculus. Kind of data set: Anticonvulsant activity in Albino Swiss CD-1 mouse assessed as protection against maximal electroshock induced seizure at 100 mg/kg,ip administration. The data set is classed as functional.
Data set [16] deals with Mus musculus. Kind of data set: Anticonvulsant activity in Albino mouse assessed as protection against Sc-PTZ induced seizure at ip administration for 30 mins. The data set is classed as functional. The following applies: 0.5 h.
The subject of data set [17] is Mus musculus. Description: Anticonvulsant activity in CD-1 mouse assessed as protection against Sc-Met induced seizure at ip administrated for 30 mins. The data set is classed as functional. The note with it: CD-1, 0.5 h.
Data set [18] can be described thus: Toxicity in CD-1 mouse assessed as median toxicity dose at ip administration for 30 mins by rotorod test. The note with it: in vivo. The data set is classed as organism-based.
The subject of data set [19] is Mus musculus. Kind of data set: Anticonvulsant activity in CD-1 mouse assessed as protection against maximal electroshock induced seizure at ip administrated for 30 mins. The data set is classed as functional. The following applies: CD-1, 0.5 h.
Data set [20] has as its system Rattus norvegicus. Description: Anticonvulsant activity in rat assessed as protection against maximal electroshock induced seizure at po administration. The data set is classed as functional.
Data set [21] deals with Mus musculus. Description: Anticonvulsant activity in mouse assessed as protection against maximal electroshock induced seizure at po administration. The data set is classed as functional.
Data set [22] in a line: Protective index, ratio of TD50 for toxicity in rat assessed as median toxicity dose at po administration by rotorod test to ED50 for anticonvulsant activity in rat assessed as protection against maximal electroshock induced seizure at po administration. The following applies: in vivo, read-out: Ratio TD50/ED50. The data set is classed as organism-based.
Data set [23] is described as follows: Toxicity in CF-1 mouse assessed as median toxic dose at ip administrated upto 4 hrs. The data set is classed as organism-based. The note with it: in vivo.
Data set [24] can be described thus: Protective index, ratio of TD50 for toxicity in CF-1 mouse assessed as median toxicity dose at ip administration upto 4 hrs by rotorod test to ED50 for anticonvulsant activity in CF-1 mouse assessed as protection against maximal electroshock induced seizure at ip administration upto 4 hrs. The data set is classed as organism-based. The note with it: in vivo, read-out: Ratio TD50/ED50.

In data set [25] the test system is Mus musculus. Kind of data set: Anticonvulsant activity in CF-1 mouse assessed as protection against maximal electroshock induced seizure at ip administrated upto 4 hrs. The data set is classed as functional.
Data set [26] can be described thus: Hepatotoxicity in rat assessed as total albumin level at 100 mg/kg,ip administrated for 2 hrs by spectrophotometric method. The data set is classed as toxicity, organism-based. The following applies: in vivo.
The nature of data set [27]: Hepatotoxicity in rat assessed as total protein level at 100 mg/kg,ip administrated for 2 hrs by spectrophotometric method. The data set is classed as toxicity, organism-based. The note with it: in vivo.
Data set [28] concerns Rattus norvegicus. Description: Anticonvulsant activity in rat brain assessed as increase in GABA level at 100 mg/kg,ip administrated for 2 hrs by spectrophotometric method. The data set is classed as functional.
Data set [29] in a line: Protective index, ratio of TD50 for toxicity in Sprague-Dawley rat assessed as median toxicity dose at po administration upto 4 hrs by rotorod test to ED50 for anticonvulsant activity in Sprague-Dawley rat assessed as protection against maximal electroshock induced seizure at po administration upto 4 hrs. The data set is classed as organism-based. The following applies: in vivo, read-out: Ratio TD50/ED50.

Data set [30] is described as follows: Toxicity in Sprague-Dawley rat assessed as median toxic dose at po administrated upto 4 hrs by rotorod test. The data set is classed as organism-based. The following applies: in vivo.
Data set [31] is described as follows: Protective index, ratio of TD50 for toxicity in CD-1 mouse assessed as median toxicity dose at ip administration by rotorod test to ED50 for anticonvulsant activity in CD-1 mouse assessed as protection against Sc-PTZ induced seizure at ip administration. The data set is classed as organism-based. The note with it: in vivo, read-out: Ratio TD50/ED50.
Data set [32] has as its system Mus musculus. Description: Anticonvulsant activity in CD-1 mouse assessed as protection against maximal electroshock induced seizure at ip administrated for 2 hrs. The data set is classed as functional.
Data set [33] concerns Mus musculus. Description: Anticonvulsant activity in CD-1 mouse assessed as protection against Sc-PTZ induced seizure at ip administrated for 2 hrs. The data set is classed as functional.
A short description of data set [34]: Protective index, ratio of TD50 for toxicity in CD-1 mouse assessed as median toxicity dose at ip administration by rotorod test to ED50 for anticonvulsant activity in CD-1 mouse assessed as protection against maximal electroshock induced seizure at ip administration. The data set is classed as organism-based. The note with it: in vivo, read-out: Ratio TD50/ED50.

In data set [1], `NC(=O)N1c2ccccc2C/C(=N/O)c2ccccc21` showed a pIC50 of 3.38. In addition, in data set [2], the selectivity ratio at 2 h was greater than 166. In addition, the selectivity ratio at 4 h in [3] is greater than 100. Moreover, the selectivity ratio at 8 h in data set [4] was greater than 117. For the same compound, the ED50 in the data set on Rattus norvegicus [5] was 12 mg/kg; in the data set on Rattus norvegicus [6], 17 mg/kg; in the data set on Rattus norvegicus [7], 20 mg/kg.

Regarding `CONC(=O)C1C(C)(C)C1(C)C`, the ED50 with Mus musculus [8] was determined as 74 mg/kg; with Rattus norvegicus [9], 35 mg/kg.

With `CCCC(CCC)C(=O)NCCN(C)C`, the selectivity ratio in data set [10] was determined as 1.8. In addition, the ED50 with Rattus norvegicus [11] is 38.6 mg/kg.

As for `CC1(C)OCC(CO[S+](N)[O-])O1` (stereo not given), in the data set with Mus musculus [12], the ED50 stood at 105 mg/kg. In addition, the inhibition in vivo at 200 mg/kg with Mus musculus [13] is no less than 80%.

Consider `Cl.Cl.O=C1CC(c2ccccc2)(c2ccccc2)CN1CN1CCN(c2ccccc2)CC1`, for which the Activity with Mus musculus [14] and with Mus musculus [15] was 25% in each case.

`O=C1Nc2ccc(Cl)cc2C(c2ccccc2)=NC1/N=N/c1ccc([N+](=O)[O-])cc1` (stereo not given): the Activity in the data set with Mus musculus [16] amounted to 100%.

Take `Cc1cccc(C)c1NC(=O)c1cc(CO)on1`: the ED50 in the data set with Mus musculus [17] was greater than 30 mg/kg; in the data set with Mus musculus [19], 8.7 mg/kg. Besides, the TD50 at 0.5 h in data set [18] amounted to 28.5 mg/kg.

As for `CC1(C)C(C(=O)NC(N)=O)C1(C)C` [2,2,3,3-TETRAMETHYLCYCLOPROPANECARBONYLUREA], the ED50 turned out to be 29 mg/kg in the data set with Rattus norvegicus [20], 90 mg/kg in the data set on Mus musculus [21] and 92 mg/kg with Rattus norvegicus [9]. Moreover, the selectivity ratio in data set [22] is 18.5.

Turning to `CC1CC(Nc2ccon2)=CC(=O)C1C(=O)OC(C)(C)C` (stereo not given), the TD50 at 4 h in data set [23] was greater than 500 mg/kg. The selectivity ratio at 4 h in data set [24] was greater than 17.8. For the same compound, the ED50 in the data set on Mus musculus [25] was determined as 28.1 mg/kg.

`Nc1ccc(Cl)cc1-c1n[nH]c(=O)n(-c2ccc(O)cc2)c1=O`: the figures for the Activity (in [26]; in data set [27]; in the data set on Rattus norvegicus [28]) were 1.61 g/dL, 4.78 g/dL and 87.4 mg, respectively.

Regarding `CCOC(=O)C1C(=O)C=C(Nc2cc(C)on2)CC1C` (stereo not given), the selectivity ratio at 4 h in data set [29] was greater than 49.6. The TD50 at 4 h in [30] was greater than 500 mg/kg.

Consider `CC1(c2ccccc2)CC(=O)N(CCC(=O)N2CCN(c3ccccc3F)CC2)C1=O` (stereo not given), for which the values for the selectivity ratio in data set [31] and in [34] were greater than 2.63 and greater than 3.83, respectively. The ED50 in the data set with Mus musculus [32] came out at 78.3 mg/kg; with Mus musculus [33] it was 114 mg/kg.
